The nature of one data set: in vivo. More on the design: species or system Sprague Dawley rats. Conditions: rat. The procedure:
Eighteen male Sprague Dawley rats (Charles River) weighing 217-263 g and aged 8-9 weeks were administered the test article, MGBG as either a single bolus intravenous dose of 1 mg/kg (Group 1) or as a single oral gavage dose of 10 mg/kg. A cohort of three animals was sacrificed via CO2 inhalation anesthesia after final blood collection at each of T=2, 4, 12, 24, 36, and 48 hours post-dose. Dose formulation analysis verified administered dose solutions as within 17% of targeted concentration of 10 mg/kg.
Analysis was performed by LC/MS/MS. Pharmacokinetic analyses were performed on the mean MGBG plasma concentration versus time data using the non-compartmental approach (linear trapezoidal rule for AUC calculations). The WinNonlin sparse sampling tool was used for PK calculations. All samples reported as BLQ (Below the Limit of Quantitation, in plasma 2.50 ng/mL) were changed to 0.00 ng/mL for the purpose of analysis.
Additionally, in rats dosed as above with single oral administration of MGBG at 10 mg/kg, immediately following the plasma sample collection for each cohort (i.e., 2, 4, 12, 24, 36, and 48 hours after dosing), three rats were sacrificed, and spleen and liver tissues collected and flask frozen. […] This is consistent with a selective uptake mechanism for MGBG. Without wishing to be bound by theory, other SAMDC inhibitors which are selectively uptaken by cells may, like MGBG, be useful in the methods and compositions disclosed herein.

In data set [1] the test system is carrageenan-induced paw edema and hyperalgesia. Put plainly: Carrageenan paw test for edema and hyperalgesia. The format is in vivo, Swiss Webster mice. An excerpt: Injection of carrageenan subcutaneously into the hind foot (paw) of a rat or mouse induces robust inflammation and pain. The inflammatory response begins 1-2 hrs post-carrageenan injection and persists for at least five hours following inoculation. In addition, the animal's inflamed hind paw is sensitive to noxious (hyperalgesia) or innocuous (allodynia) stimuli, compared to the contralateral hind paw. Compounds can be evaluated in this model for anti-hyperalgesia and anti-inflammatory activity. […] It is possible that some compounds will affect the inflamed paw and not affect the responses of the contralateral paw.
Embodiments of the carrageenan foot edema test are performed with materials, reagents and procedures essentially as described by Winter, et al., (Proc. Soc. Exp. Biol. Med., 111, 544 (1962)). Prophylactic and therapeutic embodiments have been developed, and are known in the art. The animals are evaluated for their responsiveness to noxious (paw pinch, plantar test) or innocuous (cold plate, von Frey filaments) stimuli. In the following protocol, mice were used.
Healthy young male Swiss Webster mice in which weight variation of the mice will not exceed ±20% of the mean were used for the study. Animals were divided into four groups of forty, and each group was dosed by oral gavage with either MGBG (BID, 12 hours apart at 30 mg/kg in 5 mL/kg normal saline), dexamethasone as positive control (QD, 1 mg/kg in 5 mL/kg 0.5% methylcellulose), or saline vehicle (BID, 5 mL/kg). […]
Immediately before sub-plantar administration of carrageenan and after 2, 3, 5 and 24 hours post carrageenan, mouse paw volume was measured using the plethysmometer (Ugo Basile). The assessment of edema was expressed as the mean increase in paw volume relative to control.
Prior to sub-plantar administration of carrageenan and after 0.5, 2, 3, 5, and 24 hours post-carrageenan, the latency of withdrawal response was determined by placing mice on a hot plate analgesia meter with surface temperature maintained at 51° C. […] Paw withdrawal latency is calculated as Δt=right paw withdrawal—left paw withdrawal. […]
Background: The carrageenan paw model is a standard test of acute inflammation.

The mark [2] stands for this setting: male, Sprague Dawley, iv, 1 mg/kg.
Setting [3] is: male, Sprague Dawley, po, 10 mg/kg.

Consider 1 molecule from patent publication US10085955B2, “Methods and compositions for treatment of demyelinating diseases” (Pathologica LLC, priority 2013, dated 2018).

By Kp is commonly meant the ratio of the level in a tissue or fluid to that in plasma or blood.

Turning to `CC(/C=N/NC(=N)N)=N\NC(=N)N` [MGBG, 1,1′ [methylethanediylidene]dinitrilodiguanidine], the Clobs is given as 13.4 mL/min/kg in the data set “in vivo” (setting [2]) and 3.18 mL/min/kg in “in vivo” (setting [3]). For the same molecule, the VSSobs in the data set “in vivo” (setting [2]) is given as 15.4 L/kg. In the data set “in vivo” (setting [3]), the Vd is recorded as 15.4 L/kg. Besides, the “time point through which MGBG levels were measurable in plasma” value in the data set “in vivo” (setting [3]) was found to be 12 h. Moreover, the Kp amounted to 160 in “in vivo” (male, Sprague Dawley, po, 10 mg/kg, greater exposure (AUCall) of liver tissue compared to plasma); 9.3 in “in vivo” (male, Sprague Dawley, po, 10 mg/kg, greater exposure (AUCall) of spleen tissue compared to plasma); 120 in the data set “in vivo” (male, Sprague Dawley, po, 10 mg/kg, greater exposure (Cmax) of liver tissue compared to plasma); 4 in the data set “in vivo” (male, Sprague Dawley, po, 10 mg/kg, greater exposure (Cmax) of spleen tissue compared to plasma). Also, the “clinical findings after dosing” value in “in vivo” is “Abnormal clinical findings were not noted”. In data set [1] (mice, 3 mg/kg PO BID and 10 mg/kg PO BID), the “efficacy at lower doses” value is given as “observed efficacy”. Further, the edema and hyperalgesia result in data set [1] (mice, MGBG PO BID (30 mg/kg; alternative 3, 10, 30 mg/kg)) is “efficacious in reducing edema and hyperalgesia”. This molecule also registered a top efficacious dose in data set [1] (murine carrageenan-induced paw edema and hyperalgesia models) of 30 mg/kg PO BID.
